From patent publication US20250270213A1, “PI3Ka INHIBITORS” (Synnovation Therapeutics, Inc., priority 2022, published 2025)

tested on: T47D (PIK3CA H1047R) cells; assay: pS473 AKT assay with 2.5% FBS, T47D cells; assay type: cell-based; settings: Homo sapiens, pSer473 AKT, DMEM with 2.5% FBS, 2 h treatment, read-out: T47D_IC50
Procedure: Example B. pS473 AKT Assay Protocol with 2.5% FBS
T47D (PIK3CA H1047R) cells were cultured using 10-cm petri dishes with recommended medium plus 10% fetal bovine serum. One day before the assay, cells were seeded in 96-well plates. After overnight incubation, the medium was changed to DMEM with 2.5% fetal bovine serum (FBS) and the cells were treated with different concentrations of the compounds for 2 h. Cells were then fixed using 4% paraformaldehyde at room temperature for 20 min. Aspirate 4% paraformaldehyde, and wash cells using 1× regular phosphate buffered saline 3 times, 5 min each. Aspirate any residual phosphate buffered saline and block cells using 10% goat serum containing 1% bovine serum albumin and 0.3% Triton X-100 at room temperature for 1 h. Without any additional washing, primary antibodies (rabbit anti-pSer473 AKT) were diluted using blocking buffer and added at a final volume of 50 microliter per well. Keep assay plates with primary antibodies overnight at 4° C. Wash cells using 1× regular phosphate buffered saline 3 times, 5 min each. After the final wash, incubate cells with horseradish peroxidase-conjugated secondary antibodies (goat Anti-rabbit IgG) diluted using the same blocking buffer at room temperature for 1 h. Wash cells thoroughly using 1× regular phosphate buffered saline 3 times, 5 min each. Aspirate any residual phosphate buffered saline. Add Super-Signal ELISA Pico Chemiluminescent Substrate at a final volume of 100 microliter per well. Read plates on i3x Multi-Mode Microplate Reader and calculate IC50 values using GraphPad Prism software.

IC50, < 1 µM:
Cc1cc(C(C)Nc2ccc(Cl)nc2-c2cn[nH]c2)c2c(c1)c(=O)n(C)c1c2cnn1C1CN(C)C1 (stereo not drawn) [Compound 84, 9-(1-((6-chloro-2-(1H-pyrazol-4-yl)pyridin-3-yl)amino)ethyl)-4,7-dimethyl-3-(1-methylazetidin-3-yl)-3,4-dihydro-5H-pyrazolo[3,4-c]isoquinolin-5-one]
Cc1cc(C(C)Nc2ccc(Cl)nc2-c2ccc(=O)n(C)c2)c2c(c1)c(=O)n(C)c1c2cnn1C1CN(C)C1 (stereo not drawn) [Compound 85, 9-(1-((6-chloro-1′-methyl-6′-oxo-1′,6′-dihydro-[2,3′-bipyridin]-3-yl)amino)ethyl)-4,7-dimethyl-3-(1-methylazetidin-3-yl)-3,4-dihydro-5H-pyrazolo[3,4-c]isoquinolin-5-one]
CNC(=O)c1ccc(-c2cc(Cl)ccc2NC(C)c2cc(C)cc3c(=O)n(C)c4c(cnn4C4CN(C)C4)c23)cn1 (stereo not drawn) [Compound 86, 5-(5-chloro-2-((1-(4,7-dimethyl-3-(1-methylazetidin-3-yl)-5-oxo-4,5-dihydro-3H-pyrazolo[3,4-c]isoquinolin-9-yl)ethyl)amino)phenyl)-N-methylpicolinamide]
Cc1cc(C(C)Nc2ccc(Cl)nc2-c2ccc3c(c2)CN(C)C3=O)c2c(c1)c(=O)n(C)c1c2cnn1C1CN(C)C1 (stereo not drawn) [Compound 87, 9-(1-((6-chloro-2-(2-methyl-1-oxoisoindolin-5-yl)pyridin-3-yl)amino)ethyl)-4,7-dimethyl-3-(1-methylazetidin-3-yl)-3,4-dihydro-5H-pyrazolo[3,4-c]isoquinolin-5-one]
Cc1cc(C(C)Nc2ccc(Cl)nc2-c2ccc3c(cnn3C)c2)c2c(c1)c(=O)n(C)c1c2cnn1C1CN(C)C1 (stereo not drawn) [Compound 88, 9-(1-((6-chloro-2-(1-methyl-1H-indazol-5-yl)pyridin-3-yl)amino)ethyl)-4,7-dimethyl-3-(1-methylazetidin-3-yl)-3,4-dihydro-5H-pyrazolo[3,4-c]isoquinolin-5-one]
Cc1cc(C(C)Nc2ccc(Cl)nc2-c2ncn(C)n2)c2c(c1)c(=O)n(C)c1c2cnn1C1CN(CCO)C1 (stereo not drawn) [Compound 89, 9-(1-((6-chloro-2-(1-methyl-1H-1,2,4-triazol-3-yl)pyridin-3-yl)amino)ethyl)-3-(1-(2-hydroxyethyl)azetidin-3-yl)-4,7-dimethyl-3,4-dihydro-5H-pyrazolo[3,4-c]isoquinolin-5-one]
Cc1cc(C(C)Nc2ccc(Cl)nc2-c2ncn(C)n2)c2c(c1)c(=O)n(C)c1c2cnn1C1CN(C2CC2)C1 (stereo not drawn) [Compound 90, 9-(1-((6-chloro-2-(1-methyl-1H-1,2,4-triazol-3-yl)pyridin-3-yl)amino)ethyl)-3-(1-cyclopropylazetidin-3-yl)-4,7-dimethyl-3,4-dihydro-5H-pyrazolo[3,4-c]isoquinolin-5-one]
Cc1cc(C(C)Nc2ccc(Cl)nc2-c2ncn(C)n2)c2c(c1)c(=O)n(C)c1c2cnn1C1CN(C[C@H](C)O)C1 (stereo partly drawn) [Compound 91, 9-(1-((6-chloro-2-(1-methyl-1H-1,2,4-triazol-3-yl)pyridin-3-yl)amino)ethyl)-3-(1-((S)-2-hydroxypropyl)azetidin-3-yl)-4,7-dimethyl-3,4-dihydro-5H-pyrazolo[3,4-c]isoquinolin-5-one]
Cc1cc(C(C)Nc2ccc(Cl)nc2-c2ncn(C)n2)c2c(c1)c(=O)n(C)c1c2cnn1C1CN(C[C@@H](C)O)C1 (stereo partly drawn) [Compound 92, 9-(1-((6-chloro-2-(1-methyl-1H-1,2,4-triazol-3-yl)pyridin-3-yl)amino)ethyl)-3-(1-((R)-2-hydroxypropyl)azetidin-3-yl)-4,7-dimethyl-3,4-dihydro-5H-pyrazolo[3,4-c]isoquinolin-5-one]
